Source: US9598446B2, “Amino compounds for treatment of complement mediated disorders” (priority 2014, dated 2017)

Each molecule was assayed against Human factor D (Homo sapiens (Human), UniProt P00746) (assay: Human Factor D Assay). Details: not given.
Format: biochemical

Chain of Human factor D (P00746 26-253): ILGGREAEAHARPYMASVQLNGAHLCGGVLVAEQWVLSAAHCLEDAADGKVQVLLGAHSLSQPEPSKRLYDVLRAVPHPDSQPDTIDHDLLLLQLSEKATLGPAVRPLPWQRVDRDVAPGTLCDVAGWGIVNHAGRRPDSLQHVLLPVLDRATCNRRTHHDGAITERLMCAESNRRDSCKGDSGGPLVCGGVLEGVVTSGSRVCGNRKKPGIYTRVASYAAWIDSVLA

| SMILES | IC50 |
| --- | --- |
| CC(=O)c1cn(CC(=O)N2C[C@H](F)C[C@H]2C(=O)Nc2nc(-c3c(C)nc4sccn34)cs2)c2ccc(Nc3cncnc3)cc12 [Compound 49, (2S,4R)-1-(2-(3-acetyl-5-(pyrimidin-5-ylamino)-1H-indol-1-yl)acetyl)-4-fluoro-N-(4-(6-methylimidazo[2,1-b]thiazol-5-yl)thiazol-2-yl)pyrrolidine-2-carboxamide] | 1000 to 10000 nM |
| CC(=O)c1cn(CC(=O)N2C[C@H](F)C[C@H]2C(=O)NC2CCc3c(F)ccc(F)c32)c2ccc(Nc3cncnc3)cc12 (stereo partly drawn) [Compound 51, (2S,4R)-1-(2-(3-acetyl-5-(pyrimidin-5-ylamino)-1H-indol-1-yl)acetyl)-N-(4,7-difluoro-2,3-dihydro-1H-inden-1-yl)-4-fluoropyrrolidine-2-carboxamide] | 1000 to 10000 nM |
| CC(=O)c1cn(CC(=O)N2C[C@H](F)C[C@H]2C(=O)Nc2ccc(CN)cc2)c2ccc(Nc3cncnc3)cc12 [Compound 53, (2S,4R)-1-(2-(3-acetyl-5-(pyrimidin-5-ylamino)-1H-indol-1-yl)acetyl)-N-(4-(aminomethyl)phenyl)-4-fluoropyrrolidine-2-carboxamide] | 1000 to 10000 nM |
| COc1cc(C)cc2c1OCCC2NC(=O)[C@@H]1C[C@@H](F)CN1C(=O)Cn1cc(C(C)=O)c2cc(Nc3cncnc3)ccc21 (stereo partly drawn) [Compound 54, (2S,4R)-1-(2-(3-acetyl-5-(pyrimidin-5-ylamino)-1H-indol-1-yl)acetyl)-4-fluoro-N-(8-methoxy-6-methylchroman-4-yl)pyrrolidine-2-carboxamide] | 1000 to 10000 nM |
| CC(=O)c1cn(CC(=O)N2C[C@H](F)C[C@H]2C(=O)Nc2c[nH]nc2-c2ccc(Cl)cc2Cl)c2ccc(Nc3cncnc3)cc12 [Compound 55, (2S,4R)-1-(2-(3-acetyl-5-(pyrimidin-5-ylamino)-1H-indol-1-yl)acetyl)-N-(3-(2,4-dichlorophenyl)-1H-pyrazol-4-yl)-4-fluoropyrrolidine-2-carboxamide] | 1000 to 10000 nM |

Same assay, conditions: human factor D 80 nM, substrate Z-L-Lys-SBz1 and DTNB 100 μM each, pH 7.5; read-out: IC50

| SMILES | IC50 |
| --- | --- |
| CC(=O)c1cn(CC(=O)N2C[C@H](F)C[C@H]2C(=O)Nc2nc(-c3ccc4c(c3)CCCC4)cs2)c2ccc(Nc3cncnc3)cc12 [Compound 50, (2S,4R)-1-(2-(3-acetyl-5-(pyrimidin-5-ylamino)-1H-indol-1-yl)acetyl)-4-fluoro-N-(4-(5,6,7,8-tetrahydronaphthalen-2-yl)thiazol-2-yl)pyrrolidine-2-carboxamide] | > 10000 nM |
| CC(=O)c1cn(CC(=O)N2C[C@H](F)C[C@H]2C(=O)Nc2ccc3ncsc3c2)c2ccc(Nc3cncnc3)cc12 [Compound 56, (2S,4R)-1-(2-(3-acetyl-5-(pyrimidin-5-ylamino)-1H-indol-1-yl)acetyl)-N-(benzo[d]thiazol-6-yl)-4-fluoropyrrolidine-2-carboxamide] | < 1000 nM |
| CC(=O)c1cn(CC(=O)N2C[C@H](F)C[C@H]2C(=O)Nc2cc(C)nn2-c2ccccc2F)c2ccc(Nc3cncnc3)cc12 [Compound 57, (2S,4R)-1-(2-(3-acetyl-5-(pyrimidin-5-ylamino)-1H-indol-1-yl)acetyl)-4-fluoro-N-(1-(2-fluorophenyl)-3-methyl-1H-pyrazol-5-yl)pyrrolidine-2-carboxamide] | < 1000 nM |
| CC(=O)c1cn(CC(=O)N2C[C@H](F)C[C@H]2C(=O)NC2CCCN(c3ccccc3Cl)C2=O)c2ccc(Nc3cncnc3)cc12 (stereo partly drawn) [Compound 58, (2S,4R)-1-(2-(3-acetyl-5-(pyrimidin-5-ylamino)-1H-indol-1-yl)acetyl)-N-(1-(2-chlorophenyl)-2-oxopiperidin-3-yl)-4-fluoropyrrolidine-2-carboxamide] | < 1000 nM |
| CC(=O)c1cn(CC(=O)N2C[C@H](F)C[C@H]2C(=O)NCc2ccncc2)c2ccc(Nc3cncnc3)cc12 [Compound 59, (2S,4R)-1-(2-(3-acetyl-5-(pyrimidin-5-ylamino)-1H-indol-1-yl)acetyl)-4-fluoro-N-(pyridin-4-ylmethyl)pyrrolidine-2-carboxamide] | < 1000 nM |
| CC(=O)c1cn(CC(=O)N2C[C@H](F)C[C@H]2C(=O)Nc2nc(-c3cccc(Cl)c3)ns2)c2ccc(Nc3cncnc3)cc12 [Compound 60, (2S,4R)-1-(2-(3-acetyl-5-(pyrimidin-5-ylamino)-1H-indol-1-yl)acetyl)-N-(3-(3-chlorophenyl)-1,2,4-thiadiazol-5-yl)-4-fluoropyrrolidine-2-carboxamide] | > 10000 nM |
| CC(=O)c1cn(CC(=O)N2C[C@H](F)C[C@H]2C(=O)Nc2ccccc2-c2nncn2C)c2ccc(Nc3cncnc3)cc12 [Compound 61, (2S,4R)-1-(2-(3-acetyl-5-(pyrimidin-5-ylamino)-1H-indol-1-yl)acetyl)-4-fluoro-N-(2-(4-methyl-4H-1,2,4-triazol-3-yl)phenyl)pyrrolidine-2-carboxamide] | > 10000 nM |
| CC(=O)c1cn(CC(=O)N2C[C@H](F)C[C@H]2C(=O)Nc2noc(-c3ccccc3Cl)n2)c2ccc(Nc3cncnc3)cc12 [Compound 62, (2S,4R)-1-(2-(3-acetyl-5-(pyrimidin-5-ylamino)-1H-indol-1-yl)acetyl)-N-(5-(2-chlorophenyl)-1,2,4-oxadiazol-3-yl)-4-fluoropyrrolidine-2-carboxamide] | < 1000 nM |
| CC(=O)c1cn(CC(=O)N2C[C@H](F)C[C@H]2C(=O)NC2CCCN(c3cc(C)ccc3F)C2=O)c2ccc(Nc3cncnc3)cc12 (stereo partly drawn) [Compound 63, (2S,4R)-1-(2-(3-acetyl-5-(pyrimidin-5-ylamino)-1H-indol-1-yl)acetyl)-4-fluoro-N-(1-(2-fluoro-5-methylphenyl)-2-oxopiperidin-3-yl)pyrrolidine-2-carboxamide] | < 1000 nM |
| CC(=O)c1cn(CC(=O)N2C[C@H](F)C[C@H]2C(=O)NC2CCN(c3ccn(C)n3)C2=O)c2ccc(Nc3cncnc3)cc12 (stereo partly drawn) [Compound 64, (2S,4R)-1-(2-(3-acetyl-5-(pyrimidin-5-ylamino)-1H-indol-1-yl)acetyl)-4-fluoro-N-(1-(1-methyl-1H-pyrazol-3-yl)-2-oxopyrrolidin-3-yl)pyrrolidine-2-carboxamide] | < 1000 nM |
| CC(=O)c1cn(CC(=O)N2C[C@H](F)C[C@H]2C(=O)Nc2cccc(O)n2)c2ccc(Nc3cncnc3)cc12 [Compound 68, (2S,4R)-1-(2-(3-acetyl-5-(pyrimidin-5-ylamino)-1H-indol-1-yl)acetyl)-4-fluoro-N-(6-hydroxypyridin-2-yl)pyrrolidine-2-carboxamide] | < 1000 nM |
